Laboratory results as given in patent US5750141A, “Administration of vaso-active agent and therapeutic agent” (The University of Queensland, priority 1993, dated 1998).
Where two headings read alike, the source gives them in different places.

Assays:
[1] = topical ointment; cited from earlier work
[2] = set-up: species or system rat (male Wistar)
Procedure: The following experiment was designed to determine the effect of changes in tissue blood flow (perfusion) on the transdermal absorption and subsequent tissue distribution of 3H-water.
Hindlimb perfusions: Briefly, rats (malc Wistar 280-340 g) were anaesthetised with sodium pentobarbitone 60 mg/ig i.p., the abdomen opened and the right femoral artery cannulated (PESO) via the aorta. A second cannula (PE205) was placed in the dorsal vena cava, and the hindlimb perfused in a humidicrib at 37° C. with oxygenated (95%O2 /5%CO2) Krebs Heinseleit Ringer (mM: NaCl 118, KCl 4.74, KH2 PO4 1.18, MgSO4.7H2 O 0 1.18 CaCl2.2H2 O 2.54, NaHCO3 25, Glucose 11.1;pH 7.4, 37° C.), containing 4% bovine serum albumin (Fraction V, Sigma). Once the perfusions were established rats were sacrificed by creating a pneumothorax and turned over so that cells could be attached to the outer thigh of the perfused limb. The pressure of the inflowing perfusate was continuously monitored, mean pressures were in the order of 30 and 40 mmHg at 4 and 8ml/min respectively. The perfused preparation is stable for up to 2 hrs, as validated by testing inflowing and outflowing perfusate samples for pH, dissolved oxygen concentrations, together with various enzyme and ion concentrations. The perfusion flow rates were controlled by a graduated peristaltic pump, and were measured at the beginning and end of each experiment.
Glass diffusion cells (8 cm high, 1.8 cm internal diameter, 2.54 cm^2 skin application area), were fixed to the skin on the outer thigh of the perfused hindlimb with adhesive. The application area on the hindlimb was first depilated with commercial Nair™ hair-removal cream and the epidermis removed using a dermatome before the perfusion was established. Solutions (2 ml) containing trace amounts of the radiolabelled ^3 H-water (Sigma Chemical Co, Australia), in phosphate buffered saline (pH 7.4, 37° C.) were introduced into the cell at time 0. Absorption studies were conducted for 90 minutes, after which time the cell contents were drawn out with a pipette, the cell removed and the tissues from beneath the position of the cell sequentially dissected into preweighed vials for weight determination, solubilisation and liquid scintillation counting.

[3] = format: in vivo, rat (male Wistar)
[4] = for Change in salicylic acid clearance from solutions applied to the dermis: FIG. 1
Procedure: In vivo dermal penetration and local tissue uptake studies: The rats were lightly anaesthetised by pentobarbitone (35mg/kg) and their body temperature maintained at 37° C. by placing them on a heating pad. The hair from the 4 cm^2 dorsum area were removed by electric clippers and the epidermis removed by means of an electrodermatome set at a thickness of 80 microns. A dermal absorption cell was adhered to the exposed rat dermis and warmed to 37° C. by means of an external heating device.
Solution of solute spiked with corresponding labelled substance and containing an appropriate concentration of phenylephrine, previously warmed to 37° C., was introduced into the dermal absorption cell and the solution stirred by a glass stirrer driven by an external motor. Samples were removed from the donor cell at predetermined times and placed in preweighed scintillation vials. The glass cell was removed from the rat skin at the end of two hour dermal perfusion study and the application area wiped dry with blotting paper. A blood sample was then taken from the tail vein and the animals sacrificed with overdoes of anaesthetic ether. Immediately thereafter the tissues below the treated site i.e. skin, subcutaneous tissue, fascia, muscle lining or superficial muscle, muscle, fat pad and deep muscle were removed from dissection and placed in preweighed scintillation vials. Similarly, the tissues below the contralateral side were also removed. Tissue and plasma samples were stored at -20° C. prior to analysis. In vivo dermal penetration and local tissue uptake studies (sacrificed animals): The rats were initially anaesthetised by intraperitoneal injection of pentobarbitone (35 mg/kg) and after removing epidermis as described above, were sacrificed by overdose of ether. Dermal perfusion and tissue uptake studies were then conducted in postmortem rats.
The phenylephrine induced reduction in blood flow to dermis was determined by monitoring the dermal clearance of tritiated water in presence of phenylephrine.
Aqueous samples removed from the glass cells in in vivo dermal perfusion studies were directly mixed with 5 ml of liquid scintillation cocktail BCS and counted on liquid scintillation counter. The tissue samples were solubilised with 50 μl of water and 1 ml of tissue solubilizer NCS at 50° C. for 6-8 hrs.

[5] = reductions in blood flow; cited from earlier work
[6] = format: in vivo, rat (male Wistar); remark: listed apart in the source
Procedure: Male Wistar rats (348±20 g) were anaesthetised i.p. with sodium pentobarbitone (60 mg/kg) and laid abdomen down on a heating pad (37° C.) with the left hindleg extending over the edge of the pad. The left hind foot was cleaned with cotton wool swabs soaked in a dilute solution of ethanol then dried. The foot was then immersed, to a standard position marked on the ankle joint, in 2 ml of vehicle solution (30% propylene glycol/30% ethanol/40% water) containing ^3 H-water (Sigma, Australia) with (n=3) or without (n=3) 2% GTN (David Bull Laboratories Pty Ltd. Melbourne, Australia). Solutions were left in contact with the foot for 2 hours with 10 μl samples taken at time zero and at the end of the absorption period. After 2 hrs a blood sample was taken from the tail vein and animals were sacrificed by cervical dislocation whilst still anaesthetised. The rat paws were cleaned as previously to remove any excess radiolabelled solute from the surface. Skin from the upper part of the foot, the foot pad and foot muscles were dissected from each treated and contralateral paw, placed into preweighed scintillation vials, solubilised with NCS (Amersham, Australia) and counted for radioactivity, along with the 10 μl solution samples, following the addition of the appropriate scintillation cocktail. Statistical analysis was performed using a Student unpaired t-test, with significance taken at the P<0.05 level.

[7] = 30° C.; Michaels et al.; cited from earlier work
[8] = postmortem conditions; cited from earlier work
[9] = nitroglycerine; cited from earlier work
[10] = 2% GTN vs vehicle, 2 hours, FIG. 5

Structure (SMILES): CCCCC[C@H](O)/C=C/[C@@H]1[C@H]2C/C(=C/CCCC(=O)O)O[C@H]2C[C@H]1O [Prostaglandin I2 (PGI2)]
- Effectiveness in the treatment of skin ulcers [1]: effective in the treatment of skin ulcers

Structure (SMILES): O [Water]
- Dependence of tissue concentrations on perfusion flow rate ([2]; 4 vs 8 ml/min): great dependence on perfusion flow rate
- Tissue concentration of water in dermis (2 mm) and superficial muscle layer (5 mm) ([2]; 8 ml/min vs 4 ml/min, p<0.05): statistically lower
- Tissue concentration of water in the deeper muscle layers ([2]; lower flow rate (4 ml/min)): higher concentrations
- Increase in clearance from the dermal cell ([2]; perfusion flow rate raised from 4 ml/min to 8 ml/min, p<0.05, 90 minutes, pH 7.4, 37° C.): 31%
- Concentration in plasma and contralateral tissues ([3]; in the presence of phenylephrine): decreased
- Concentration in tissues below the application area ([3]; in the presence of phenylephrine, FIGS. 3 & 4): increased
- Dermal clearance (Mean ± S.D.) ([4]; Control (no phenylephrine), anaesthetised rats, 37° C., two hour study): 1.10 ± 0.24 mL/h
- Dermal clearance (Mean ± S.D.) ([4]; Phenylephrine (1:5000)): 0.40 ± 0.02 mL/h
- Dermal clearance (Mean ± S.D.) ([4]; Phenylephrine (1:20000)): 0.53 ± 0.05 mL/h
- Dermal clearance (Mean ± S.D.) ([4]; Sacrificed animals): 0.36 ± 0.02 mL/h
- Absorption from dermal and subcutaneous sites [5]: significant reductions in absorption
- Concentration of water in upper skin and muscle tissues of the contralateral limb ([6]; 2% GTN vs vehicle): significant increase
- Concentration in the outer skin or foot pad of the rat paw [6, 10]: no significant change
- Concentration of water in the deeper foot muscles [6, 10]: highly significant increase
- Plasma concentration of water ([6]; 2% GTN vs vehicle, 2 hours, P=0.046, FIG. 5): significant increase
- Underlying tissue concentration of topically coadministered 3H-water ([6]; topical GTN, anaesthetised animals): significantly increase

Structure (SMILES): CN[C@@H](C)[C@H](O)c1ccccc1 [ephedrine]
- Maximum flux through skin [7]: 250-400 μg/cm^2 per hr

Structure (SMILES): CN(Cc1cnc2nc(N)nc(N)c2n1)c1ccc(C(=O)N[C@@H](CCC(=O)O)C(=O)O)cc1 [methotrexate]
- Disappearance from dermal and subcutaneous sites [8]: reduced

Structure (SMILES): O=[N+]([O-])OCC(CO[N+](=O)[O-])O[N+](=O)[O-] [nitroglycerine]
- Water solubility [9]: 1.3 mg/mL

Structure (SMILES): O=C(O)c1ccccc1O [salicylic acid]
- Plasma levels and levels in contralateral tissues ([3]; PE concentration of 0.1%, FIG. 2a-h): sudden increase
- Concentration in underlying tissues (fraction of initial concentration) ([3]; PE concentrations above 0.01%, FIG. 2a-g): approach a constant value
- Concentration in underlying tissues (fraction of initial concentration) ([3]; PE up to 0.01%, underlying tissues except for fat pad, FIG. 2a-g): increase with increase in concentration of PE up to 0.01%
- Systemic salicylic acid blood levels ([3]; increasing phenylephrine concentration, FIG. 2h): gradual decline
- Concentration in contralateral tissues ([3]; increasing phenylephrine concentrations, FIG. 2a-g): decreased with increasing phenylephrine concentrations
- Concentration in deep muscle ([3]; phenylephrine 0.01%): maximum concentrations
- Concentration in deep muscle ([3]; phenylephrine above 0.01%): decreases
- Change in salicylic acid clearance from solutions applied to the dermis ([4]; increasing phenylephrine concentration up to 0.05%): decreased up to phenylephrine concentration of 0.05%
- Change in salicylic acid clearance from solutions applied to the dermis ([4]; phenylephrine 0.1%): no further decrease
